# Results: article PMC6667205, “Antitumor activity of novel pyrazole-based small molecular inhibitors of the STAT3 pathway in patient derived high grade glioma cells” (PLoS ONE, 2019)
# Molecular target: T1, STAT3 (Homo sapiens, UniProt P40763)
# T1 construct: GST-STAT3
# Assay: TR-FRET displacement of fluorescent phosphopeptide (5-FAM-G(pY)LPQTVC-NH2) from GST-STAT3
# Type: binding
# T1 sequence (P40763 2-770): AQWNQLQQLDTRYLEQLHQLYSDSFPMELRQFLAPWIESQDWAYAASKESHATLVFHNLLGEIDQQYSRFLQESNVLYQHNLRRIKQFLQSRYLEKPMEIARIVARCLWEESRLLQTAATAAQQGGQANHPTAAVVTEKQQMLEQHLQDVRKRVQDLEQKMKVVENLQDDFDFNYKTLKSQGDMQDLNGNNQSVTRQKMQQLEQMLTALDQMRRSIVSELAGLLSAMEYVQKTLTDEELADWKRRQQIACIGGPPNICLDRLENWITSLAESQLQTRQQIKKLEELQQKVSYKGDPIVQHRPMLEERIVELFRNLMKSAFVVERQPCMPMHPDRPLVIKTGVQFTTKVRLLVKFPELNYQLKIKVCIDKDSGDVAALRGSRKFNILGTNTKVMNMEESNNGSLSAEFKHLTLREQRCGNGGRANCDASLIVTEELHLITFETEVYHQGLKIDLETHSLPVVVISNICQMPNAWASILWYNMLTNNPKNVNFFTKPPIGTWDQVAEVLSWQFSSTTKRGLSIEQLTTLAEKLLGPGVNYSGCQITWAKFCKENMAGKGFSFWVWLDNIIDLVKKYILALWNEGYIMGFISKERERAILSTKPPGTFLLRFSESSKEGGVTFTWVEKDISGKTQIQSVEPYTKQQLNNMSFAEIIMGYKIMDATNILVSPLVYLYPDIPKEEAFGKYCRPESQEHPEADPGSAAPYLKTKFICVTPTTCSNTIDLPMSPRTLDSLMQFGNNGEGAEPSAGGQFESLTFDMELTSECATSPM
substance,measurement,value
S3I-1757,IC50,62.1 ± 6.1 µM
